The results in this text go back to PubChem BioAssay (NCI).

Assay in all cases: NCI anticancer screen, dose series, 48 h
Assay [1] relates to DLD-1 colon.
For assay [2], the system named is DMS 114 small cell lung.
Assay [3] concerns HOP-18 NSCLC.
Assay [4] has as its system KM20L2 colon.
Assay [5] concerns LXFL 529 NSCLC.
The subject of assay [6] is M19-MEL melanoma.
Assay [7] relates to DMS 273 small cell lung.
The test system of assay [8] is RXF-631 renal.

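Compound exposure: 48 hours, 5 concentrations, 96-well plates. Definition used: TGI = concentration required for complete inhibition of growth.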 A value given as a limit tells only on which side of the number the result lay.

On to `Cc1occ2c1C(=O)CC1C2[C@@H](O)CC2C(C)(C)CCC[C@]12C` (stereo partly drawn), for which the TGI in assay [1], in assay [2], in assay [3], in assay [4], in assay [5] and in assay [6] was more than 100 µM in each case.

`C#CCSc1nc(N)c2ncn(C3OC(COP(=O)(O)O)C(O)C3O)c2n1` (stereo not drawn): the TGI in assay [1], in assay [7], in assay [3], in assay [4] and in assay [6] was more than 239 µM each time.

In the case of `COC(=O)C1=C(C)N(NC(=O)c2ccccc2)C2(O)CCCC(=O)C12C` (stereo not drawn), the TGI in assay [1], in assay [2], in assay [7], in assay [4], in assay [5] and in assay [8] was more than 100 µM each time.

Turning to `CN1Cc2c(nc(-c3ccc(Br)cc3)c[n+]2[O-])N(C)C1`, the TGI in assay [1], in assay [2], in assay [7], in assay [3], in assay [4] and in assay [5] was more than 100 µM in each case.

In the case of `CC(=O)Nc1ccc(C(=O)N2N=C(C)/C(=C/c3cccc([N+](=O)[O-])c3)C2=O)cc1`, the TGI in assay [1], in assay [2], in assay [7], in assay [3] and in assay [6] was more than 100 µM each time.

Take `COC1=CC(=O)c2c(O)c3c(c(O)c2C1=O)C[C@](C)(O)C[C@@H]3O`: the TGI was 17.2 µM in assay [1]; 3.7 µM in assay [2]; 8.37 µM in assay [7]; more than 100 µM in assay [4]; 14.9 µM in assay [5]; 0.73 µM in assay [6]. Also, the TGI in assay [8] stood at 11.2 µM.

For the compound `C=CCC1(CC)C(=O)NC(=O)NC1=O`, the TGI in assay [7], in assay [4], in assay [5] and in assay [6] was more than 100 µM each time.

Take `COc1cccc(NC(=O)CC(=O)NNCC(=O)Nc2nnc(-c3ccc(N(CCC#N)S(=O)(=O)c4ccccc4)cc3)s2)c1`: the TGI in assay [1], in assay [2], in assay [7], in assay [3], in assay [4] and in assay [5] was more than 100 µM throughout. For the same compound, the TGI in assay [6] and in assay [8] was more than 100 µM each time.

With `CN(/N=N/c1nc[nH]c1C(N)=O)C1CCCCC1`, the TGI in assay [1], in assay [2], in assay [7], in assay [4], in assay [5] and in assay [6] was more than 100 µM each time.
